Results published in ChEMBL document CHEMBL1155642, “In vitro antiplasmodial, antiamoebic, and cytotoxic activities of some monomeric isoquinoline alkaloids” (J Nat Prod, 2000).
Where a name gives a salt, the structure may show the parent alone. Calls of active or inactive are those of the source. The calls are words filed in the database; no cut-off is given here.

How the values were obtained:
Plasmodium falciparum = experiment: Antiplasmodial activity against multi drug-resistant Plasmodium falciparum K1 in erythrocytes by [3H]hypoxanthine uptake; type: functional, organism-based
Entamoeba histolytica [1] = experiment: Antiamoebic activity against Entamoeba histolytica NIH 200 after 72 hrs by microdilution technique; type: functional, organism-based; settings: NIH 200, 72 h
KB = experiment: Cytotoxicity against human KB cells after 72 hrs; type: functional, cell-based
Entamoeba histolytica [2] = experiment: Antiamoebic activity against Entamoeba histolytica NIH 200 in guinea pig at 2 mg/kg, iv; type: functional, organism-based; set-up: dose 2 mg/kg
Entamoeba histolytica [3] = experiment: Antiamoebic activity against Entamoeba histolytica NIH 200 in guinea pig at 3 mg/kg, po; type: functional, organism-based; set-up: dose 3 mg/kg

| SMILES | IC50 (Plasmodium falciparum) [µM] | IC50 (Entamoeba histolytica [1]) [µM] | IC50 (KB) [µM] | Activity (Entamoeba histolytica [2]) | Activity (Entamoeba histolytica [3]) |
| --- | --- | --- | --- | --- | --- |
| COc1ccc2c(c1OC)CN(C)CCc1cc3c(cc1C(=O)C2)OCO3 [ALLOCRYPTOPINE] | 5.08 | 135 | > 338 |  |  |
| COc1ccc2cc3[n+](cc2c1OC)CCc1cc2c(cc1-3)OCO2 [BERBERINE CHLORIDE] | 0.968 | 111 | 7.32 | Active | Active |
| COc1ccc2c(c1OC)CN1CCc3cc4c(cc3[C@@H]1C2)OCO4 [CANADINE] | > 147 | 126 | > 734 |  |  |
| COc1ccc2c(c1OC)-c1c(OC)c(OC)cc3c1[C@H](C2)NCC3 [CATALPIFOLINE] | 24.1 | 147 | > 733 |  |  |
| COc1cc2c(cc1O)-c1cc3ccc(OC)c(OC)c3c[n+]1CC2 [COLUMBAMINE CHLORIDE] | 1.92 | 156 | 77.9 |  |  |
| COc1cc2c3c(c1O)-c1c(ccc(OC)c1OC)C[C@@H]3N(C)CC2 [CORYDINE] | 22.3 | 90.6 | > 733 |  |  |
| COc1cc2c(cc1O)CC[n+]1cc3cc(OC)c(OC)cc3cc1-2 [DEHYDRODISCRETINE CHLORIDE] | 0.639 | 66.9 | > 335 |  |  |
| COc1cc2cc3c4c(c(OC)c5c(c4c2cc1OC)OCO5)CCN3C [DEHYDROOCOTEINE] | 5.78 | 136 | > 341 |  |  |
| CC[C@H]1CN2CCc3cc(OC)c(OC)cc3[C@@H]2C[C@@H]1C[C@H]1NCCc2cc(OC)c(OC)cc21 [EMETINE HYDROCHLORIDE] |  | 2.23 |  |  |  |
| COc1ccc2c(c1O)-c1c(OC)c(OC)cc3c1[C@H](C2)N(C)CC3 [ISOCORYDINE] | 37 | > 147 | > 733 |  |  |
| COc1cc2c(cc1O)CC[n+]1cc3c(OC)c(OC)ccc3cc1-2 [JATRORRHIZINE CHLORIDE] | 3.15 | 82.7 | > 335 |  |  |
| COc1ccc2c(c1O)-c1c(O)c(OC)cc3c1[C@H](C2)[N+](C)(C)CC3 [MAGNOFLORINE IODIDE] | > 107 | 111 | > 533 |  |  |
| COc1ccc2c(c1OC)[C@]13CCC(=O)[C@]4(O)O[C@H]2C[C@]14N(C)CC3 [METAPHANINE HYDROBROMIDE] | > 117 | 58.6 | > 586 |  |  |
| COc1cc2c3c(c1O)-c1c(ccc(OC)c1OC)C[C@@H]3NCC2 [NORCORYDINE] | 3.08 | 76.4 | > 733 |  |  |
| COC1=C[C@]23CCN(C)[C@H](Cc4cc(OC)c(OC)cc42)C3=CC1=O [O-METHYLFLAVINANTINE] | 207 | 73.4 | > 734 |  |  |
| COc1cc2c(cc1OC)-c1c3c(c(OC)c4c1[C@H](C2)N(C)CC4)OCO3 [OCOTEINE] | 34.8 | 51.2 | 74.3 |  |  |
| COc1cc([C@@H]2c3cc4c(cc3[C@H](O)[C@H]3COC(=O)[C@H]23)OCO4)cc(OC)c1OC [PODOFILOX] |  |  | 0.008 |  |  |
| COC1=C[C@]23CCN(C)[C@H](Cc4ccc(OC)c(O)c42)C3=CC1=O [SALUTARIDINE] | > 95 | 76.4 | > 764 |  |  |
| COC1=C[C@@H]2[C@@H]3Cc4ccc(OC)c(O)c4[C@]2(CCN3C)CC1=O [SINOMENINE] | > 152 | 56.2 | > 759 |  |  |
| COc1cc2c(cc1OC)-c1c3c(c(OC)c4ccnc(c14)C2=O)OCO3 [THALICMININE] | 16.2 | 75.1 | > 685 |  |  |
| COc1c(O)ccc2cc3[n+](cc12)CCc1cc2c(cc1-3)OCO2 [THALIFENDINE] | 7.91 | 116 | > 699 |  |  |
